Our source for the IC50 and microsomal CLint values is patent US20190256499A1, “SUBSTITUTED QUINOXALINE DERIVATIVES AS INHIBITORS OF PFKFB” (priority 2016, published 2019).

As usually defined, the IC50 is the concentration that inhibits the measured activity by half. Broadly, the microsomal CLint is the capacity of the preparation to metabolise the compound, expressed as a volume cleared per time.

The target in series [1] is T1, Human recombinant His-tagged PFKFB3 (Homo sapiens, UniProt Q16875).
T1 construct: His; made in house
T1 sequence (Q16875 whole entry): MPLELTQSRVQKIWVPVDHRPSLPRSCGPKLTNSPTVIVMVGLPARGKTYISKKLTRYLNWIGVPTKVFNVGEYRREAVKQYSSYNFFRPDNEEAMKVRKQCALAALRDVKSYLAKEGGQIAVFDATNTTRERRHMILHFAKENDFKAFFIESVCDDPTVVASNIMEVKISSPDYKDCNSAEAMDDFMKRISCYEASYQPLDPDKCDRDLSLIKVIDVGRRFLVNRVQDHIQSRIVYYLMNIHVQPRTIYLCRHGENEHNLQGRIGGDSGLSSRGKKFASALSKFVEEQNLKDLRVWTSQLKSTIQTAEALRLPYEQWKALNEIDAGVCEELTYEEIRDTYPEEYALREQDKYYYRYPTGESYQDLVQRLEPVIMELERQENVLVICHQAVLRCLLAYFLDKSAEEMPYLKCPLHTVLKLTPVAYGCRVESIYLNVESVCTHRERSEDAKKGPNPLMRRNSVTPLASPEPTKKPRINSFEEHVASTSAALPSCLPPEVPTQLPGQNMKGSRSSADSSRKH
As to the kind of experiment: PFKFB3 IC50 determination assay (modified ADP-Glo in vitro kinase assay). The format is biochemical. Particulars: human recombinant PFKFB3 25 nM, ATP 20 μM, fructose-6-phosphate 2 μM, 2 h, rt; read-out: PFKFB IC50. As to the method: In vitro kinase assay used to determine IC50 values for tested inhibitors is based on a modified ADP-Glo™ system (Promega) and consists of two parts:
1. Kinase reaction—performed in optimized conditions. At this step PFKFB3 phosphorylates its substrate fructose-6-phosphate using ATP as a source of phosphate to produce fructose-2,6-bisphosphate and ADP. Reaction is performed at Km values for ATP and substrate using optimized buffer composition and time of the reaction. Human recombinant His-tagged PFKFB3 (PFKFB3 BATCH II SEC) with confirmed activity is produced and purified in-house. 2. Detection of ADP as a product of the reaction using ADP-Glo™ system. This part is conducted by using the commercially available kit ADP-Glo™ Kinase Assay (Promega, cat. No# V9103) according to manufacturer's instruction, modified by 5× dilutions of assay reagents (both ADP-Glo™ Reagent and Kinase Detection Solution). Reproducibility and reliability of this modification is confirmed in an optimization process.
Test compounds are dissolved in DMSO and then transferred to the V-bottom 96-well plate. For IC50 determination ten 10× serial dilutions starting from 100 μM are prepared.
Two mixes are prepared on ice: Mix 1—containing appropriate kinase amount in 2× reaction buffer (100 mM TRIS pH 8.0) and Mix 2—containing 2.31× concentrated substrate (Fructose-6-phosphate) and ATP in MilliQ water. 15 μL per well of Mix 1 is transferred to assay wells of 96-well white plate. Next, 2 μl of 15× concentrated test compound in DMSO is added to Mix 1 for 20 min pre-incubation, followed by addition of Mix 2 (13 μl/well). Total reaction volume is 30 μL per well. Samples are tested in duplicates. Final concentration of DMSO in the reaction is 6.7%. Conditions needed for performing PFKFB3 (PFKFB3 BATCH II SEC) in vitro kinase assay are given below:
This protocol is based on Technical Bulletin, ADP-Glo™ Kinase Assay (Promega) and is adapted to 96-well plate containing 30 μL reaction mixture:
30 μL of 5× diluted ADP-Glo™ Reagent is added to each well of 96-well plate containing 30 μL of reaction mixture. The plate is incubated for 90 minutes on a shaker at rt. 60 μL of 5× diluted Kinase Detection Solution is added to each well of 96-well plate containing 60 μL of the solution (ratio of kinase reaction volume to ADP-Glo™ Reagent volume to Kinase Detection Solution volume is maintained at 1:1:2). Plate is incubated for 40 minutes on a shaker at rt, protected from light. Luminescence is measured in the plate reader Synergy 2 (BioTek).
Luminescent readouts for compounds tested in 10 concentrations (routinely from 100 μM to […], […] serial dilutions) in duplicates, as well as for positive control, are first normalized to no-substrate negative control by its subtraction. In the next step, % of normalized positive control is calculated for each data point and plotted against test compound concentration:
% of control—percent of positive control normalized to no-substrate negative control Lumcpd—luminescence of test compound Lumneg—luminescence of no-substrate negative control Lumpos—luminescence of positive control
IC50 parameter is determined by the GraphPad Prism 5.0 software [log(inhibitor) vs. response—Variable slope (four parameters)].
A general note: In ADP-Glo the light output rises with the ADP produced.

The nature of series [2]: Microsomal stability (intrinsic clearance), mouse liver microsomes. The format is in vitro ADME. Details: microsomal CLint: dose or concentration left out as unconfirmed. Particulars: mouse, liver microsomes, pH 7.4, mouse liver microsomes. From the text:
A microsomal stability assay is used to measure in vitro clearance (Clint). The assay involves measuring the rate of disappearance of a compound due to its intrinsic attitude to be metabolized (“intrinsic” meaning that the disappearance is not affected by other properties like permeability, binding etc. that play a role when quantifying in vivo clearance). The microsomal stability (intrinsic clearance, Clint) and thus metabolic stability is generally given as μl/min/mg protein. It can be visualized as the volume of solution that 1 mg of microsomes is able to clear of the compound in one minute.
A Tecan Genesis workstation (RSP 150/8) was used for to perform the microsomal incubations. Analysis was carried out using a Waters ACQUITY UPLC system coupled to an ABSciex API3000 mass spectrometer. Data analysis was performed using Assay Explorer (Symyx).
Mobile phases: A=0.1% formic acid in water; B=acetonitrile
Flow rate: 0.750 mL/min; Detection: ESI, MRM; Injection: 10 μL; Column temperature: 50° C.
Potassium phosphate buffer: 0.05 M potassium phosphate buffer pH 7.4 containing 1 mM MgCl2 NADPH (nicotinamide adenine dinucleotide phosphate): 22.5 mg NADPH-Na4 in 1.8 ml potassium phosphate buffer Acetonitrile: 50 Vol % acetonitrile (1 volume acetonitrile, 1 volume water) DMSO: 20 Vol % DMSO in water Stock solution of 20 mg/ml human or mouse liver microsomes (protein)/ml in phosphate buffer Stock solution of 10 mM compound in 100% DMSO
(In general: Microsomes from liver hold many membrane-bound enzymes, among them those of drug oxidation.)

With `Cn1cc([C@H](Nc2cc(-c3ccc4ccn(C)c4c3)c3nccnc3c2)c2cncn2C)cn1` (single isomer, unassigned) [Example 11], the 50% inhibitory concentration (IC50) in series [1] came to 14 nM. Moreover, the intrinsic metabolic clearance (microsomal CLint) in series [2] was determined as 105 µL/min/mg.
For `COc1ccc([C@@H](Nc2cc(-c3ccc4ccn(C)c4c3)c3nccnc3c2)c2cccnc2)cn1` [Comparative Example 4, [(S)-(6-methoxy-pyridin-3-yl)-pyridin-3-yl-methyl]-[8-(1-methyl-1H-indol-6-yl)-quinoxalin-6-yl]-amine, reference compound] the same measures were 9.9 nM and 291 µL/min/mg.
As for `Cn1cc([C@H](Nc2cc(-c3ccc4ccn(C)c4c3)c3nccnc3c2)c2cnnn2C)cn1` (single isomer, unassigned) [Example 8], the 50% inhibitory concentration (IC50) in series [1] was found to be 5.2 nM. Besides, the microsomal CLint in series [2] stood at 29 µL/min/mg.
Regarding `Cn1ccc2ccc(-c3cc(NC(c4cccnc4)c4ccc(=O)[nH]n4)cc4nccnc34)cc21` (single isomer, unassigned) [Example 2], in series [1], the 50% inhibitory concentration (IC50) was 28 nM. Also, the microsomal CLint in series [2] came out at 101 µL/min/mg.
For `COc1ccc([C@@H](Nc2cc(-c3ccc4ccn(C)c4c3)c3nccnc3c2)c2cccnc2)nn1` (single isomer, unassigned) [Example 5], the IC50 in series [1] came out at 8 nM. In series [2], the microsomal CLint was found to be 154 µL/min/mg.
